These results are taken from ChEMBL document CHEMBL1933028, “Discovery of cyclic amine-substituted benzoic acids as PPARα agonists” (Bioorg Med Chem Lett, 2012).

Residue numbers refer to the chain shown, from its start.

Data set [1] addresses T1, Peroxisome proliferator-activated receptor alpha (Rattus norvegicus, UniProt P37230).
T1 sequence (P37230 whole entry): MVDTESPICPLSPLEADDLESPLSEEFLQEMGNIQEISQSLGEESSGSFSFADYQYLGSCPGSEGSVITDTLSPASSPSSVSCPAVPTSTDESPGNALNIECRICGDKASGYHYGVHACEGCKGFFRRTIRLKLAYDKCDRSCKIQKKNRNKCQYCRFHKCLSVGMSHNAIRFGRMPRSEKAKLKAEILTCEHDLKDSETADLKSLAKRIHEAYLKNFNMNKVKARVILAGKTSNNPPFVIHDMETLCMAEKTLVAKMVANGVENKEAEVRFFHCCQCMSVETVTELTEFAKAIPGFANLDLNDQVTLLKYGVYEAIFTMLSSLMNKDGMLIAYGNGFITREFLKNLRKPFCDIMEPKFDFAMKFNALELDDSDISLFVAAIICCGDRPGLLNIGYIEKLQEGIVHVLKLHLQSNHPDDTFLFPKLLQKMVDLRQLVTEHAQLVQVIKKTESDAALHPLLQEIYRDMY
The data set can be described thus: Agonist activity at rat PPARalpha. The format is functional.

Data set [2] has as its system Canis familiaris. As to the kind of experiment: Antidyslipidemic activity in high-fat diet fed dog assessed as decrease in free fatty acid at 0.01 mg/kg, po administered QD for 1 week (reference value: 0.624 +/- 0.057 mEq/L). It is filed as functional, Canis lupus familiaris.
For data set [3], the target named is T2, Peroxisome proliferator-activated receptor alpha (Mus musculus, UniProt P23204).
T2 sequence (P23204 whole entry): T1 sequence (P37230 whole entry) with L41I, S50G, A85V, V86I, T88A, N96S, A135V, A207G, N265D
As to the kind of experiment: Agonist activity at mouse PPARalpha. It is filed as functional.

Data set [4] relates to Canis familiaris. As to the kind of experiment: Antidyslipidemic activity in high-fat diet fed dog assessed as decrease in serum triglyceride level at 0.003 mg/kg, po administered QD for 1 week (reference value: 98 +/- 4 mg/dL). The format is functional, Canis lupus familiaris.
The nature of data set [5]: Half life in dog at 0.3 mg/kg, po. It is filed as ADME, organism-based, Canis lupus familiaris. The arrangement: dose 0.3 mg/kg, route oral. The note with it: in vivo.
The subject of data set [6] is Canis familiaris. The data set can be described thus: Volume of distribution at steady state in dog at 0.3 mg/kg, po. The format is ADME, organism-based, Canis lupus familiaris. Details: dose 0.3 mg/kg, route oral. The note with it: in vivo.
Data set [7] deals with T3, Peroxisome proliferator-activated receptor delta (Mus musculus, UniProt P35396).
T3 sequence (P35396 whole entry): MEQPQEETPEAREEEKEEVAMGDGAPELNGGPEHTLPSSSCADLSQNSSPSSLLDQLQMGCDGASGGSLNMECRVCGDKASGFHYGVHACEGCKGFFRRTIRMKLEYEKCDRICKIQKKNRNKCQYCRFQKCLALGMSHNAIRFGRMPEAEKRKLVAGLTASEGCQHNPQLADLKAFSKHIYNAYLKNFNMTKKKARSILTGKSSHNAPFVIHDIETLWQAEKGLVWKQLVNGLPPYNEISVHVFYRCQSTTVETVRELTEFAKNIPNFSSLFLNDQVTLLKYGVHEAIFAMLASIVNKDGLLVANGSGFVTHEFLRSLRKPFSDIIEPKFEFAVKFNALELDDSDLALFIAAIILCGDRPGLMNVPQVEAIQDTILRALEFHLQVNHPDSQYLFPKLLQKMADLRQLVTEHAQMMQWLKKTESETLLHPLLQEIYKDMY
As to the kind of experiment: Agonist activity at mouse PPARdelta. The format is functional.

The subject of data set [8] is Canis familiaris. The data set can be described thus: Antidyslipidemic activity in high-fat diet fed dog assessed as decrease in total cholesterol at 0.01 mg/kg, po administered QD for 1 week (reference value: 205 +/- 6 mg/dL). The format is functional, Canis lupus familiaris.
Data set [9] deals with T4, Peroxisome proliferator-activated receptor gamma (Homo sapiens, UniProt P37231).
T4 sequence (P37231 whole entry): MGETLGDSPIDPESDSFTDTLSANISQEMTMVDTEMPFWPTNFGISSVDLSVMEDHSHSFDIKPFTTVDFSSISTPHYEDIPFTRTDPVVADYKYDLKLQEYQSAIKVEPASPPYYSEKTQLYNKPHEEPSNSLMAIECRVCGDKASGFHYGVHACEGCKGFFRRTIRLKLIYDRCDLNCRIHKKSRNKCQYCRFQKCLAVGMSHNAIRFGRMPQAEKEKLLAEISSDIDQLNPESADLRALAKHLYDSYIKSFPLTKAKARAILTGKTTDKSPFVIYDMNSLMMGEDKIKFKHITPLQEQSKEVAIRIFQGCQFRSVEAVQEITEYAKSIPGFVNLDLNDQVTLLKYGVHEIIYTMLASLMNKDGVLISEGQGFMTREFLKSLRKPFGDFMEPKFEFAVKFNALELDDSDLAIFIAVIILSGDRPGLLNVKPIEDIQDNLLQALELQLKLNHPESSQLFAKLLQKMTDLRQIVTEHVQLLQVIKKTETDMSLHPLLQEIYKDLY
The data set can be described thus: Transactivation of human PPARgamma expressed in CHO-K1 cells. The format is cell-based.

Data set [10] in a line: Agonist activity at hamster PPARdelta. It is filed as functional, Cricetinae.
The nature of data set [11]: Total clearance in rat at 1 mg/kg, po. The arrangement: dose 1 mg/kg, route oral. The settings on record: in vivo. It is filed as ADME, organism-based.
Data set [12] has as its system Canis familiaris. The data set can be described thus: Antidyslipidemic activity in high-fat diet fed dog assessed as decrease in free fatty acid at 0.003 mg/kg, po administered QD for 1 week (reference value: 0.624 +/- 0.057 mEq/L). The format is functional, Canis lupus familiaris.
Data set [13] can be described thus: Cmax in rat at 1 mg/kg, po. The format is ADME, organism-based. Details: dose 1 mg/kg, route oral. The settings on record: in vivo.
Data set [14] relates to Canis familiaris. As to the kind of experiment: Antidyslipidemic activity in high-fat diet fed dog assessed as decrease in non-HDL cholesterol at 0.03 mg/kg, po administered QD for 1 week (reference value: 75 +/- 5 mg/dL). It is filed as functional, Canis lupus familiaris.
Data set [15] concerns Canis familiaris. As to the kind of experiment: Toxicity in high-fat diet fed dog assessed as effect on food intake at 0.03 mg/kg, po administered QD for 1 week (reference value: 3.67+/-0.09 kg). Details: dose 0.03 mg/kg, route oral. The settings on record: in vivo, 168 h. The format is organism-based, Canis lupus familiaris.
The test system of data set [16] is Canis familiaris. As to the kind of experiment: Antidyslipidemic activity in high-fat diet fed dog assessed as decrease in total cholesterol at 0.003 mg/kg, po administered QD for 1 week (reference value: 205 +/- 6 mg/dL). The format is functional, Canis lupus familiaris.

As to `Cc1nc(-c2ccc(Cl)cc2)sc1C(=O)N[C@H]1CCCN(c2cccc(C(=O)O)c2)C1`, the EC50 (as a rule, the midpoint of the concentration-response curve) was 3.6 µM in data set [1]; 4.7 µM in data set [3]; 6.6 µM in [7]; 9.6 µM in data set [9]; over 7.1 µM in [10]. The Activity in [2] amounted to 0.651 mEq/L; in data set [4] it was 64 mg/dL; in data set [8], 176 mg/dL; in data set [12] it was 0.607 mEq/L; in [14], 42 mg/dL; in [15] it was 3.51 kg. Moreover, the Activity in data set [16] is 190 mg/dL. The half-life (commonly the time needed for the level to fall by half in the phase considered) in data set [5] was 74 h. This molecule also yielded a Vdss in data set [6] of 1.66 L/kg. In addition, the apparent clearance (CL/F) (usually clearance divided by bioavailability, as obtained after extravascular dosing) in [11] was determined as 1.53 mL/min/kg. Also, the peak concentration (Cmax) (in general, the peak of the concentration-time curve) in data set [13] came to 316 ng/mL.
